According to patent US12195427B2, “MASP-2 inhibitors and methods of use” (priority 2018, dated 2025):

Target: MASP-2 CCP2-SP (Homo sapiens (Human), UniProt O00187)
Experiment: MASP-2 co-crystallization, X-ray crystallography and structure analysis (H-bonds, van der Waals contacts);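 for Ligand-pharmacophore element distance, pharmacophore element C2: distance from averaged pharmacophore element to bound ligand; missing value means element absent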;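 for Ligand-pharmacophore element distance, pharmacophore element C3: distance from averaged pharmacophore element to bound ligand; missing value means element absent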;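 for Ligand-pharmacophore element distance, pharmacophore element C4: distance from averaged pharmacophore element to bound ligand; missing value means element absent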;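 for Ligand-pharmacophore element distance, pharmacophore element C5: distance from averaged pharmacophore element to bound ligand; missing value means element absent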
Set-up: van der Waals contact distance, MASP-2 HIS 483 atom CD2 / van der Waals contact distance, MASP-2 HIS 483 atom NE2 / van der Waals contact distance, SER 654 C to compound atom / van der Waals contact distance, SER 654 O to compound atom / van der Waals contact distance, TRP 655 C to compound atom / van der Waals contact distance, MASP-2 GLY 528 atom CA / van der Waals contact distance TRP 655 atom CZ3 / van der Waals contact distance TRP 655 atom N / van der Waals contact distance TRP 655 atom CE3 / van der Waals contact distance GLY 656 atom C / van der Waals contact distance GLY 656 atom CA / van der Waals contact distance GLY 656 atom O / van der Waals contact distance, MASP-2 TYR 607 atom CD1 / van der Waals contact distance, MASP-2 PRO 606 atom O / d(C3,CA1) / d(CA1,N1)2 / d(H4,O1) / d(H4,O2) / d(O1,O2) / d(CA1,O2) / d(CA6,O1) / d(CA6,O2) / d(CA1,C5) / d(O2,H3) / d(N2,C2) / d(CA5,N2) / d(N2,C4) / d(N2,C6) / d(N2,CA3) / d(N2,O3) / d(O4,H2): unit not given beside the values
Outline: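 First, CCP2-SP constructs with or without a 6His tag are produced in E. coli. Crystals are then soaked once or twice with inhibitor, cryoprotected in 20% glycerol or frozen directly, and diffracted at synchrotron beamlines. Phasing uses molecular replacement with parts of 1Q3X.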

[1] = Table A5-1 pharmacophore: distance between elements, S2/S1 region
[2] = Table A5-2 pharmacophore distance, S3/S4 region
[3] = Table A7-1, between pharmacophore elements of the bound compound

MASP-2 CCP2-SP, sequence (O00187 445-686): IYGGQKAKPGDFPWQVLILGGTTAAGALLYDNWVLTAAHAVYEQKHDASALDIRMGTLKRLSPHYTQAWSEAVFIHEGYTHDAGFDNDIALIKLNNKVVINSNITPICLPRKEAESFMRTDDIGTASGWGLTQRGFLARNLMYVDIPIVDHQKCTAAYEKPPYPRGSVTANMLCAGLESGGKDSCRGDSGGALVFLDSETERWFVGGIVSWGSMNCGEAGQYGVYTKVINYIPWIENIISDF
MASP-2 CCP2-SP, sequence (O00187 364-432 partner): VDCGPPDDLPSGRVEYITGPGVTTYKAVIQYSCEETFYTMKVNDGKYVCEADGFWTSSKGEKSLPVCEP

C[C@H](NC(=O)[C@H]1C[C@@H](c2ccccc2)CCN1)C(=O)NCc1cc(Cl)ccc1O.Cl [1078_7]
Ligand-pharmacophore element distance, pharmacophore element C2 (Table A4-1, element C2): 0.64
Ligand-pharmacophore element distance, pharmacophore element C3 (Table A4-1, element C3): 0
Ligand-pharmacophore element distance, pharmacophore element C4 (Table A4-1, element C4): 0
Ligand-pharmacophore element distance, pharmacophore element C5 (Table A4-1, element C5): 0.61
Ligand-pharmacophore element distance, pharmacophore element C6 (Table A4-1, element C6): 0
Ligand-pharmacophore element distance, pharmacophore element C7 (Table A4-1, element C7): 0
Ligand-pharmacophore element distance, pharmacophore element CA1 (Table A4-1, element CA1): 1.69
Ligand-pharmacophore element distance, pharmacophore element CA2 (Table A4-1, element CA2): 0.55
Ligand-pharmacophore element distance, pharmacophore element CA3 (Table A4-1, element CA3): 0
Ligand-pharmacophore element distance, pharmacophore element CA4 (Table A4-1, element CA4): 0
Ligand-pharmacophore element distance, pharmacophore element CA5 (Table A4-1, element CA5): 0
Ligand-pharmacophore element distance, pharmacophore element CA6 (Table A4-1, element CA6): 0
d(CA1,C5) [1]: 3.14
d(CA1,O1) [1]: 4.83
d(CA1,O2) [1]: 4.83
d(CA1,O4) [1]: 2.77
d(H4,O1) [1]: 2.08
d(H4,O2) [1]: 2.49
d(O1,O2) [1]: 3.35
d(O4,H2) [1]: 0.97
d(N2,C2) [2]: 1.47
d(N2,CA2) [2]: 5.74
d(O2,H3) [2]: 3.26
d(O2,N2) [2]: 3.04
a(C5, CA1, O1) (Table A6-1 pharmacophore angle): 158.86
a(CA1, O1, O2) (Table A6-1 pharmacophore angle): 110.36
a(CA1, O4, H2) (Table A6-1 pharmacophore angle): 126.10
a(O1, CA1, O4) (Table A6-1 pharmacophore angle): 67.29
a(O1, O2, H4) (Table A6-1 pharmacophore angle): 86.28
a(O1, O2, H3) (Table A6-2 pharmacophore angle): 137.32
a(O1, O2, N2) (Table A6-2 pharmacophore angle): 140.50
a(O2, N2, C2) (Table A6-2 pharmacophore angle): 114.22
a(O2, N2, CA2) (Table A6-2 pharmacophore angle): 151.33
Pharmacophore torsion angle a(C5, CA1, O1, H4) [3]: 30.48
Pharmacophore torsion angle a(H4, O1, O2, H3) [3]: −121.10
Pharmacophore torsion angle a(H4, O1, O2, N2) [3]: −116.26
Pharmacophore torsion angle a(O1, H4, O2, CA1) [3]: −57.85
Pharmacophore torsion angle a(O1, O2, N2, C2) [3]: 144.61
Pharmacophore torsion angle a(O1, O2, N2, CA2) (Table A7-2, between pharmacophore elements of the bound compound): 143.84

Cc1nc(N)ccc1CNC(=O)[C@H](C)NC(=O)[C@H]1C[C@@H](c2cccc3ccccc23)CCN1 [compound 1297, (2R,4S)—N—((S)-1-(((6-Amino-2-methylpyridin-3-yl)methyl)amino)-1-oxopropan-2-yl)-4-(naphthalen-1-yl)piperidine-2-carboxamide]
H-bond distance to MASP-2 ASP 627 atom OD2 (Table A1 (H-Bonds), ASP 627 OD2): 3.13
H-bond distance to MASP-2 GLY 656 atom N (Table A1 (H-Bonds), GLY 656 N): 3.33
H-bond distance to MASP-2 GLY 656 atom O (Table A1 (H-Bonds), GLY 656 O): 2.67
H-bond distance to MASP-2 SER 628 atom O (Table A1 (H-Bonds), SER 628 O): 2.96
H-bond distance to MASP-2 SER 654 atom O (Table A1 (H-Bonds), SER 654 O): 2.88
H-bond distance to MASP-2 SER 657 atom O (Table A1 (H-Bonds), SER 657 O): 3.06
van der Waals contact distance, MASP-2 HIS 483 atom CD2 (Table A2-1): 3.74
van der Waals contact distance, MASP-2 HIS 483 atom NE2 (Table A2-1): 3.84
van der Waals contact distance, MASP-2 GLY 528 atom CA (Table A2-2): 3.76
van der Waals contact distance, MASP-2 TYR 607 atom CD1 (Table A2-4): 3.81
van der Waals contact distance, MASP-2 amino acid atom to compound atom (Table A2-9, ARG 630, AA atoms CG, CZ): 3.47
van der Waals contact distance, VAL 653 CG1 to compound atom (Table A2-11): 3.22
van der Waals contact distance, SER 654 O to compound atom (Table A2-12): 3.51
van der Waals contact distance, TRP 655 C to compound atom (Table A2-12): 3.89
van der Waals contact distance, TRP 655 CA to compound atom (Table A2-12): 3.49
van der Waals contact distance TRP 655 atom CE3 (Table A2-13, MASP-2 TRP 655 CE3, compound atom in line below): 3.54
